Patent publication US5258382A, “Tetrahydropyrrolo[1,2-a]pyrazine-4-spiro-3'-pyrrolidine derivatives, processes for the preparation thereof and pharmaceutical compositions containing the same” (Dainippon Pharmaceutical Co., Ltd., priority 1991, dated 1993)
Read-outs that look alike come from different tables or passages of the source.

Tests used:
[1] = system: sorbitol accumulation; test: Inhibitory activity on sorbitol accumulation (in vivo), sciatic nerve of streptozotocin-diabetic rats; design: species or system Male Wistar rats; settings: for Inhibition (%) of sorbitol accumulation: oral, once a day for 5 days, sciatic nerve, 4 hours after final administration; for inhibitory activity on sorbitol accumulation relative to (±)-sorbinil: compared with (±)-sorbinil; for duration of effect: rat, in vivo
Protocol: Male Wistar rats (200-250 g) were used in groups of 4 animals each. The rats were made diabetic by single i.v. injection of streptozotocin (40 mg/kg) freshly dissolved in physiological saline.
From one week after the induction of diabetes, the rats were orally given test compounds, suspended in 0.5% tragacanth solution, once a day for 5 days. […] The activity of test compounds was expressed as the inhibition percent of sorbitol accumulation ar given doses, which was calculated according to the following equation.
Inhibition %=(S-T)/(S-N)×100
S: Sorbitol content in sciatic nerve from diabetic control
T: Sorbitol content in sciatic nerve from diabetic rats given test compounds
N: Sorbitol content in sciatic nerve from normal rats.

[2] = target: T1, Aldose reductase (Sus scrofa, UniProt P80276); test: Aldose reductase inhibitory activity (in vitro); assay type: biochemical, porcine
T1 construct: Lenses isolated from porcine eyes (Tokyo Sibaura Zouki Co., Ltd., Japan) were homogenized; tissue Tokyo Sibaura Zouki Co., Ltd., Japan (porcine eyes); host or cells: porcine lens
Protocol: Lenses isolated from porcine eyes (Tokyo Sibaura Zouki Co., Ltd., Japan) were homogenized with 5 mM phosphate buffer (pH 7.4) containing 2 mM mercaptoethanol, and centrifuged at 10,200 g for 10 minutes. The supernatant was sequentially precipitated with ammonium sulfate at 30%, 40% and 60% saturation. The precipitate at 60% saturation was dissolved in a homogenizing buffer and used as a crude enzyme preparation. The unit of enzyme activity was defined as the amount of enzyme which oxidized 1 μmoles of NADPH/minute under the following assay condition.
The standard reaction mixture was composed of 100 mM phosphate buffer (pH 6.5), 0.2 mM NADPH, 1.5 mM D,L-glyceraldehyde, 0.4M lithium sulfate, enzyme solution (7.0 mU/ml) and test compounds at various concentrations. The reaction mixture was incubated at 37° C., and the decrease in absorbance at 340 nm was monitored by a spectrophotometer (Hitachi 150-20). The enzyme activity was calculated based upon the rate of decrease in the absorbance over a period of 1 minute from 1 minute after the onset of the enzyme reaction.

[3] = Acute toxicity, oral; settings: 1 g/kg oral, suspended in 0.5% tragacanth; observed for 7 days
Excerpt: Male ddY mice (18-25 g) were used in groups of 5 animals each. The compounds of Examples 1 (21) and 22, suspended in 0.5% tragacanth solution, were orally administered at a dose of 1 g/kg to the animals.

[4] = crude enzyme from porcine lenses, D,L-glyceraldehyde 1.5 mM, NADPH 0.2 mM, pH 6.5, 37° C., read-out: IC50 (aldose reductase inhibitory activity)

**Q.** For `O=C1NC(=O)C2(CCOc3ccc(F)cc32)N1` (racemic) [(±)-Sorbinil, 6-fluoro-2,3-dihydrospiro[4H-1-benzopyran-4,4'-imidazolidine]-2',5'-dione, reference compound], which “Inhibition (%) of sorbitol accumulation” value ([1]; 3.0 mg/kg/day) is on record?
**A.** 60.7%

**Q.** What about the “Inhibition (%) of sorbitol accumulation” value ([1]; 30 mg/kg/day) of the same compound?
**A.** 106.9%

**Q.** Which results are given for `O=C1CC2(C(=O)N1)C(=O)N(Cc1ccc(Br)cc1F)C(=O)c1cccn12` (single isomer, unassigned) [Example 22, an enantiomer of 2-(4-bromo-2-fluorobenzyl)-[1,2,3,4-tetrahydropyrrolo[1,2-a]pyrazine-4-spiro-3'-pyrrolidine]-1,2',3,5'-tetrone]?
**A.** Inhibition (%) of sorbitol accumulation ([1]; 0.3 mg/kg/day): 77.6%; Inhibition (%) of sorbitol accumulation ([1]; 1.0 mg/kg/day): 107.3%; inhibitory activity on sorbitol accumulation relative to (±)-sorbinil [1]: equipotent to or more potent than (±)-sorbinil; duration of effect [1]: long-lasting; IC50 [2]: 39 nM; mortality [3]: None of the mice died during this period

**Q.** Which “Inhibition (%) of sorbitol accumulation” value ([1]; 200 mg/kg/day) does the source give for `CC(=C\c1ccccc1)/C=C1/SC(=S)N(CC(=O)O)C1=O` [Epalrestat, (E,E)-5-(2-methyl-3-phenyl-2-propenylidene) 4-oxo-2-thioxo-3-thiazolidineacetic acid, reference compound] here?
**A.** 5.7%

**Q.** What about the IC50 [2] of the same compound?
**A.** 73 nM

**Q.** Which “Inhibition (%) of sorbitol accumulation” value ([1]; 1.0 mg/kg/day) does the source give for `O=C1CC2(C(=O)N1)C(=O)N(Cc1ccc(Br)cc1F)C(=O)c1cccn12` (centres unmarked) [Example 1, 2-(4-bromo-2-fluorobenzyl)-[1,2,3,4-tetrahydropyrrolo[1,2-a]pyrazine-4-spiro-3'-pyrrolidine]-1,2',3,5'-tetrone] here?
**A.** 104.7%

**Q.** What about the “Inhibition (%) of sorbitol accumulation” value ([1]; 30 mg/kg/day) of the same compound?
**A.** 114.6%

**Q.** And the “inhibitory activity on sorbitol accumulation relative to (±)-sorbinil” value [1]?
**A.** equipotent to or more potent than (±)-sorbinil

**Q.** What about the duration of effect [1] of the same compound?
**A.** long-lasting

**Q.** What about the IC50 [2] of the same compound?
**A.** 50 nM

**Q.** And the mortality [3]?
**A.** None of the mice died during this period

**Q.** Which results are given for `O=C1CC2(C(=O)N1)C(=O)N(Cc1ccccc1Cl)C(=O)c1cccn12` (centres unmarked) [Example 2, 2-(2-chlorobenzyl)-[1,2,3,4-tetrahydropyrrolo[1,2-a]pyrazine-4-spiro-3'-pyrrolidine]-1,2',3,5'-tetrone]?
**A.** Inhibition (%) of sorbitol accumulation ([1]; 3.0 mg/kg/day): 30.5%; Inhibition (%) of sorbitol accumulation ([1]; 30 mg/kg/day): 97.1%; IC50 [2, 4]: 33 nM

**Q.** Which “Inhibition (%) of sorbitol accumulation” value ([1]; 30 mg/kg/day) does the source give for `O=C1CC2(C(=O)N1)C(=O)N(Cc1ccccc1)C(=O)c1cccn12` (centres unmarked) [Example 3] here?
**A.** 69.1%

**Q.** What about the IC50 [2, 4] of the same compound?
**A.** 99 nM

**Q.** With `O=C1CC2(C(=O)N1)C(=O)N(Cc1ccccc1F)C(=O)c1cccn12` (centres unmarked) [Example 4] as the compound, how does the “Inhibition (%) of sorbitol accumulation” value ([1]; 1.0 mg/kg/day) read?
**A.** 47.2%

**Q.** What about the “Inhibition (%) of sorbitol accumulation” value ([1]; 10 mg/kg/day) of the same compound?
**A.** 73.5%

**Q.** And the “inhibitory activity on sorbitol accumulation relative to (±)-sorbinil” value [1]?
**A.** equipotent to or more potent than (±)-sorbinil

**Q.** What about the IC50 [2, 4] of the same compound?
**A.** 61 nM

**Q.** Which results are given for `O=C1CC2(C(=O)N1)C(=O)N(Cc1cccc(Cl)c1)C(=O)c1cccn12` (centres unmarked) [Example 5]?
**A.** Inhibition (%) of sorbitol accumulation ([1]; 3.0 mg/kg/day): 44.2%; Inhibition (%) of sorbitol accumulation ([1]; 30 mg/kg/day): 99.4%; inhibitory activity on sorbitol accumulation relative to (±)-sorbinil [1]: equipotent to or more potent than (±)-sorbinil; IC50 [2, 4]: 31 nM

**Q.** Which “Inhibition (%) of sorbitol accumulation” value ([1]; 30 mg/kg/day) does the source give for `O=C1CC2(C(=O)N1)C(=O)N(Cc1ccc(F)cc1)C(=O)c1cccn12` (centres unmarked) [Example 6] here?
**A.** 55.8%

**Q.** And the IC50 [2, 4]?
**A.** 120 nM

**Q.** What does the source list for `O=C1CC2(C(=O)N1)C(=O)N(Cc1ccc(Cl)cc1)C(=O)c1cccn12` (centres unmarked) [Example 7]?
**A.** Inhibition (%) of sorbitol accumulation ([1]; 3.0 mg/kg/day): 69.7%; Inhibition (%) of sorbitol accumulation ([1]; 30 mg/kg/day): 104.6%; inhibitory activity on sorbitol accumulation relative to (±)-sorbinil [1]: equipotent to or more potent than (±)-sorbinil; IC50 [2, 4]: 33 nM

**Q.** What does the source list for `O=C1CC2(C(=O)N1)C(=O)N(Cc1ccc(Br)cc1)C(=O)c1cccn12` (centres unmarked) [Example 8, 2-(4-bromobenzyl)-[1,2,3,4-tetrahydropyrrolo[1,2-a]pyrazine-4-spiro-3'-pyrrolidine]-1,2',3,5'-tetrone]?
**A.** Inhibition (%) of sorbitol accumulation ([1]; 3.0 mg/kg/day): 104.7%; inhibitory activity on sorbitol accumulation relative to (±)-sorbinil [1]: equipotent to or more potent than (±)-sorbinil; IC50 [2, 4]: 47 nM

**Q.** With `O=C1CC2(C(=O)N1)C(=O)N(Cc1ccc(C(F)(F)F)cc1)C(=O)c1cccn12` (centres unmarked) [Example 9] as the compound, how does the IC50 [2, 4] read?
**A.** 80 nM

**Q.** What does the source list for `O=C1CC2(C(=O)N1)C(=O)N(Cc1ccc(F)cc1F)C(=O)c1cccn12` (centres unmarked) [Example 10]?
**A.** Inhibition (%) of sorbitol accumulation ([1]; 3.0 mg/kg/day): 33.3%; Inhibition (%) of sorbitol accumulation ([1]; 30 mg/kg/day): 98.0%; IC50 [2, 4]: 72 nM

**Q.** Which “Inhibition (%) of sorbitol accumulation” value ([1]; 30 mg/kg/day) does the source give for `Cc1ccc(CN2C(=O)c3cccn3C3(CC(=O)NC3=O)C2=O)cc1` (centres unmarked) [Example 11] here?
**A.** 65.8%

**Q.** What about the IC50 [2, 4] of the same compound?
**A.** 52 nM

**Q.** Which IC50 [2, 4] does the source give for `COc1ccc(CN2C(=O)c3cccn3C3(CC(=O)NC3=O)C2=O)cc1` (centres unmarked) [Example 12] here?
**A.** 46 nM

**Q.** Which IC50 [2, 4] does the source give for `COc1ccc(CN2C(=O)c3cccn3C3(CC(=O)NC3=O)C2=O)cc1OC` (centres unmarked) [Example 13] here?
**A.** 110 nM

**Q.** For `O=C1CC2(C(=O)N1)C(=O)N(Cc1ccc([N+](=O)[O-])cc1)C(=O)c1cccn12` (centres unmarked) [Example 15], which “Inhibition (%) of sorbitol accumulation” value ([1]; 3.0 mg/kg/day) is on record?
**A.** 7.4%

**Q.** And the “Inhibition (%) of sorbitol accumulation” value ([1]; 30 mg/kg/day)?
**A.** 102.2%

**Q.** What about the IC50 [2, 4] of the same compound?
**A.** 110 nM

**Q.** For `O=C1CC2(C(=O)N1)C(=O)N(Cc1ccc(Cl)cc1F)C(=O)c1cccn12` (centres unmarked) [Example 16, 2-(4 chloro 2-fluorobenzyl)-[1,2,3,4-tetrahydropyrrolo[1,2-a]pyrazine-4-spiro-3'-pyrrolidine]-1,2',3,5'-tetrone], which “Inhibition (%) of sorbitol accumulation” value ([1]; 1.0 mg/kg/day) is on record?
**A.** 61.0%

**Q.** And the “inhibitory activity on sorbitol accumulation relative to (±)-sorbinil” value [1]?
**A.** equipotent to or more potent than (±)-sorbinil

**Q.** And the IC50 [2, 4]?
**A.** 41 nM

**Q.** With `O=C1CC2(C(=O)N1)C(=O)N(Cc1ccccc1Br)C(=O)c1cccn12` (centres unmarked) [Example 17] as the compound, how does the IC50 [2, 4] read?
**A.** 52 nM

**Q.** With `O=C1CC2(C(=O)N1)C(=O)N(Cc1cccc(Br)c1)C(=O)c1cccn12` (centres unmarked) [Example 18] as the compound, how does the IC50 [2, 4] read?
**A.** 37 nM

**Q.** Which IC50 [2, 4] does the source give for `O=C1CC2(C(=O)N1)C(=O)N(Cc1ccc(Br)cc1F)C(=O)c1cc(Cl)cn12` (centres unmarked) [Example 19, 2-(4-bromo-2-fluorobenzyl)-7-chloro-[1,2,3,4-tetrahydropyrrolo[1,2-a]pyrazine-4-spiro-3'-pyrrolidine]-1,2',3,5'-tetrone] here?
**A.** 50 nM

**Q.** Which IC50 [2, 4] does the source give for `O=C1CC2(C(=O)N1)C(=O)N(Cc1ccc(Br)cc1F)C(=O)c1cc(Br)cn12` (centres unmarked) [Example 20, 7-bromo-2-(4-bromo-2-fluorobenzyl)-[1,2,3,4-tetrahydropyrrolo[1,2-a]pyrazine-4-spiro-3'-pyrrolidine]-1,2',3,5'-tetrone] here?
**A.** 100 nM

**Q.** What does the source list for `O=C1CC2(C(=O)N1)C(=O)N(Cc1ccc(Cl)c(Cl)c1)C(=O)c1cccn12` (centres unmarked) [Example 24, 2-(3,4-dichlorobenzyl)-[1,2,3,4-tetrahydropyrrolo[1,2-a]pyrazine-4-spiro-3'-pyrrolidine]-1,2',3,5'-tetrone]?
**A.** Inhibition (%) of sorbitol accumulation ([1]; 1.0 mg/kg/day): 70.9%; Inhibition (%) of sorbitol accumulation ([1]; 30 mg/kg/day): 111.8%; inhibitory activity on sorbitol accumulation relative to (±)-sorbinil [1]: equipotent to or more potent than (±)-sorbinil; IC50 [2, 4]: 23 nM

**Q.** With `O=C1CC2(C(=O)N1)C(=O)N(Cc1ccc(Br)cc1F)C(=O)c1ccc(Br)n12` (centres unmarked) [Example 26, 6-bromo-2-(4-bromo-2-fluorobenzyl)-[1,2,3,4-tetrahydropyrrolo[1,2-a]pyrazine-4-spiro-3'-pyrrolidine]-1,2',3,5'-tetrone] as the compound, how does the IC50 [2, 4] read?
**A.** 40 nM

**Q.** With `O=C1CC2(C(=O)N1)C(=O)N(Cc1ccc(Br)cc1F)C(=O)c1ccc(Cl)n12` (centres unmarked) [Example 27, 2-(4 bromo-2-fluorobenzyl)-6-chloro-[1,2,3,4-tetrahydropyrrolo[1,2-a]pyrazine-4-spiro-3'-pyrrolidine]-1,2',3,5-tetrone] as the compound, how does the IC50 [2, 4] read?
**A.** 35 nM
